Data published in US6737383B1, “Herbicidal oxadiazolidines” (priority 1999, dated 2004).

Assays:
sugar beet = test: Test B pre/postemergence sugar beet; assay type: in vivo, Beta vulgaris
How it was run: (§1)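 Herbicidal effect was estimated by eye on a ten-point control scale after plants spent twelve to sixteen days in a greenhouse following soil or foliar treatment. Foliar sprays targeted plants at one to four leaves; all doses were formulated in a non-phytotoxic solvent with surfactant.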

velvetleaf = test: Test B pre/postemergence velvetleaf; assay type: in vivo, Abutilon theophrasti
How it was run: as §1

crabgrass = test: Test B pre/postemergence crabgrass; assay type: in vivo, Digitaria sanguinalis
How it was run: as §1

giant foxtail = test: Test B pre/postemergence giant foxtail; assay type: in vivo, Setaria faberii
How it was run: as §1

blackgrass = test: Test B pre/postemergence blackgrass; assay type: in vivo, Alopecurus myosuroides
How it was run: as §1

cocklebur = test: Test B pre/postemergence cocklebur; assay type: in vivo, Xanthium strumarium
How it was run: as §1

pigweed = test: Test B pre/postemergence pigweed; assay type: in vivo, Amaranthus retroflexus
How it was run: as §1

rice = test: Test B flood test rice; assay type: in vivo, Oryza sativa
How it was run: (§2)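 Plants were grown to the 2-leaf stage before treatment with test chemical, then held in a greenhouse for twelve to sixteen days. Injury was visually rated against untreated controls on a 0–10 scale, where 0 is no effect and 10 is complete control.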

bedstraw = test: Test B pre/postemergence bedstraw; assay type: in vivo, Galium aparine
How it was run: as §1

wild oat = test: Test B pre/postemergence wild oat; assay type: in vivo, Avena fatua
How it was run: as §1

surinam grass = test: Test B pre/postemergence surinam grass; assay type: in vivo, Brachiaria decumbens
How it was run: as §1

corn = test: Test B pre/postemergence corn; assay type: in vivo, Zea mays
How it was run: as §1

duck salad = test: Test B flood test duck salad; assay type: in vivo, Heteranthera limosa
How it was run: as §2

soybean = test: Test B pre/postemergence soybean; assay type: in vivo, Glycine max
How it was run: as §1

purple nutsedge = test: Test B pre/postemergence purple nutsedge; assay type: in vivo, Cyperus rotundus
How it was run: as §1

wheat = test: Test B pre/postemergence wheat; assay type: in vivo, Triticum aestivum
How it was run: as §1

[1] = Preemergence, Rate 62 g/ha, scale of 0 to 10 where 0 is no effect and 10 is complete control
[2] = Preemergence, Rate 250 g/ha, scale of 0 to 10 where 0 is no effect and 10 is complete control
[3] = Preemergence, Rate 500 g/ha, scale of 0 to 10 where 0 is no effect and 10 is complete control
[4] = Rate 62 g/ha, Postemergence, scale 0 to 10, 0 no effect, 10 complete control
[5] = Rate 125 g/ha, Postemergence, scale of 0 to 10 where 0 is no effect and 10 is complete control
[6] = Rate 125 g/ha, Preemergence, scale of 0 to 10 where 0 is no effect and 10 is complete control
[7] = Rate 250 g/ha, Postemergence, scale of 0 to 10 where 0 is no effect and 10 is complete control
[8] = Rate 500 g/ha, Postemergence, scale 0 to 10, 0 no effect, 10 complete control
[9] = Rate 62 g/ha, headed Pre-emergence (flood test species), scale 0 to 10 (0 no effect, 10 complete control)
[10] = Rate 125 g/ha, Pre-emergence, flood test species, scale 0 to 10 where 0 is no effect and 10 is complete control
[11] = Rate 250 g/ha, Pre-emergence, flood-test species, scale 0 to 10, 0 is no effect, 10 is complete control
[12] = Rate 500 g/ha, Pre-emergence, flood test species, scale 0 to 10 (0 no effect, 10 complete control)

CCC=CCn1c(=O)on(C(=O)N(c2ccc(F)cc2)C(C)C)c1=O [Compound 286]
Sugarbeets plant response rating (sugar beet; [1]): 0
Sugarbeets plant response rating (sugar beet; [2]): 0
Plant response rating, Sugarbeets (sugar beet; [3]): 4
Sugarbeets plant response rating (sugar beet; [4]): 0
Sugarbeets plant response rating (sugar beet; [5]): 2
Sugarbeets plant response rating (sugar beet; [6]): 0
Plant response rating, Sugarbeets (sugar beet; [7]): 2
Velvetleaf plant response rating (velvetleaf; [1]): 0
Velvetleaf plant response rating (velvetleaf; [2]): 3
Plant response rating, Velvetleaf (velvetleaf; [3]): 5
Velvetleaf plant response rating (velvetleaf; [4]): 0
Velvetleaf plant response rating (velvetleaf; [5]): 0
Velvetleaf plant response rating (velvetleaf; [6]): 0
Plant response rating, Velvetleaf (velvetleaf; [7]): 0
Crabgrass plant response rating (crabgrass; [1]): 0
Crabgrass plant response rating (crabgrass; [2]): 10
Plant response rating, Crabgrass (crabgrass; [3]): 10
Crabgrass plant response rating (crabgrass; [4]): 0
Crabgrass plant response rating (crabgrass; [5]): 0
Crabgrass plant response rating (crabgrass; [6]): 2
Plant response rating, Crabgrass (crabgrass; [7]): 2
Giant foxtail plant response rating (giant foxtail; [1]): 8
Giant foxtail plant response rating (giant foxtail; [2]): 10
Plant response rating, Giant foxtail (giant foxtail; [3]): 10
Giant foxtail plant response rating (giant foxtail; [4]): 0
Giant foxtail plant response rating (giant foxtail; [5]): 0
Giant foxtail plant response rating (giant foxtail; [6]): 10
Plant response rating, Giant foxtail (giant foxtail; [7]): 2
Blackgrass plant response rating (blackgrass; [1]): 0
Blackgrass plant response rating (blackgrass; [2]): 7
Plant response rating, Blackgrass (blackgrass; [3]): 7
Blackgrass plant response rating (blackgrass; [4]): 0
Blackgrass plant response rating (blackgrass; [5]): 2
Blackgrass plant response rating (blackgrass; [6]): 0
Plant response rating, Blackgrass (blackgrass; [7]): 5
Blackgrass plant response rating (blackgrass; [8]): 8
Cocklebur plant response rating (cocklebur; [1]): 0
Cocklebur plant response rating (cocklebur; [2]): 0
Plant response rating, Cocklebur (cocklebur; [3]): 0
Cocklebur plant response rating (cocklebur; [4]): 0
Cocklebur plant response rating (cocklebur; [5]): 0
Cocklebur plant response rating (cocklebur; [6]): 0
Plant response rating, Cocklebur (cocklebur; [7]): 0
Cocklebur plant response rating (cocklebur; [8]): 0
Redroot pigweed plant response rating (pigweed; [1]): 0
Redroot pigweed plant response rating (pigweed; [2]): 2
Plant response rating, Redroot pigweed (pigweed; [3]): 10
Redroot pigweed plant response rating (pigweed; [4]): 0
Redroot pigweed plant response rating (pigweed; [5]): 3
Redroot pigweed plant response rating (pigweed; [6]): 0
Plant response rating, Redroot pigweed (pigweed; [7]): 6
Rice plant response rating (rice; [9]): 0
Rice plant response rating (rice; [10]): 0
Rice plant response rating (rice; [11]): 0
Rice plant response rating (rice; [12]): 0
Bedstraw plant response rating (bedstraw; [1]): 0
Bedstraw plant response rating (bedstraw; [2]): 0
Plant response rating, Bedstraw (bedstraw; [3]): 0
Bedstraw plant response rating (bedstraw; [4]): 2
Bedstraw plant response rating (bedstraw; [5]): 2
Bedstraw plant response rating (bedstraw; [6]): 0
Plant response rating, Bedstraw (bedstraw; [7]): 5
Bedstraw plant response rating (bedstraw; [8]): 6
Wild oats plant response rating (wild oat; [1]): 0
Wild oats plant response rating (wild oat; [2]): 4
Plant response rating, Wild oats (wild oat; [3]): 6
Wild oats plant response rating (wild oat; [4]): 0
Wild oats plant response rating (wild oat; [5]): 0
Plant response rating, Wild oats (wild oat; [7]): 2
B. signalgrass plant response rating (surinam grass; [1]): 0
B. signalgrass plant response rating (surinam grass; [2]): 8
Plant response rating, B. signalgrass (surinam grass; [3]): 8
B. signalgrass plant response rating (surinam grass; [4]): 0
B. signalgrass plant response rating (surinam grass; [5]): 0
B. signalgrass plant response rating (surinam grass; [6]): 3
Plant response rating, B. signalgrass (surinam grass; [7]): 0
B. signalgrass plant response rating (surinam grass; [8]): 2
Corn plant response rating (corn; [1]): 0
Corn plant response rating (corn; [2]): 0
Plant response rating, Corn (corn; [3]): 0
Corn plant response rating (corn; [4]): 0
Corn plant response rating (corn; [5]): 0
Corn plant response rating (corn; [6]): 0
Plant response rating, Corn (corn; [7]): 0
Corn plant response rating (corn; [8]): 0
Ducksalad plant response rating (duck salad; [9]): 0
Ducksalad plant response rating (duck salad; [10]): 0
Ducksalad plant response rating (duck salad; [11]): 0
Ducksalad plant response rating (duck salad; [12]): 0
Soybean plant response rating (soybean; [1]): 0
Soybean plant response rating (soybean; [2]): 0
Plant response rating, Soybean (soybean; [3]): 0
Soybean plant response rating (soybean; [4]): 1
Soybean plant response rating (soybean; [5]): 1
Soybean plant response rating (soybean; [6]): 0
Plant response rating, Soybean (soybean; [7]): 2
Nutsedge plant response rating (purple nutsedge; [1]): 0
Nutsedge plant response rating (purple nutsedge; [2]): 0
Nutsedge plant response rating (purple nutsedge; [4]): 0
Nutsedge plant response rating (purple nutsedge; [5]): 0
Nutsedge plant response rating (purple nutsedge; [6]): 0
Plant response rating, Nutsedge (purple nutsedge; [7]): 0
Wheat plant response rating (wheat; [1]): 0
Wheat plant response rating (wheat; [2]): 0
Plant response rating, Wheat (wheat; [3]): 2
Wheat plant response rating (wheat; [4]): 0
Wheat plant response rating (wheat; [5]): 3
Wheat plant response rating (wheat; [6]): 0
Plant response rating, Wheat (wheat; [7]): 3
